According to patent US20110200686A1, “COMPOSITIONS OF MODULATORS OF THE WNT/B-CATENIN PATHWAY AND AN N-CINNAMYL-N'BENZHYDRYL PIPERAZINE AND THEIR USE IN TREATING NEOPLASTIC CONDITIONS INCLUDING MALIGNANT MELANOMA” (UNIVERSITY OG WASHINGTON, priority 2008, published 2011):

What was measured:
GSK-3 = conditions: cited from earlier work; for selectivity for GSK-3: literature values
B16 melanoma cells = assay: Cell proliferation assay, B16 murine melanoma cells; type: cell-based; conditions: NaCl 20 mM, negative control, FIG. 3B
Procedure: For cell counts by hematocytometer, cells were plated at a uniform density (usually between 10,000 to 25,000 cells per well) in a 12 or 24 well tissue culture plate in the appropriate media supplemented with 2% FBS. Cells were then incubated at 37° C. at 5% CO2 for three to seven days based on individual cell doubling time. At the end of the timecourse, cells were trypsinized, resuspended in the appropriate media, and counted using a standard hematocytometer. Dead cells were identified by 0.4% Trypan Blue stain. Cell proliferation experiments were performed with a minimum of six biologic replicates. […] For relative cell proliferation assays of B16:GFP cells incubated with lithium chloride or sodium chloride, cell proliferation was measured by relative firefly luciferase units (Promega; Madison, Wis.).

Wnt/β-catenin pathway [1] = conditions: positive control, known from Zhang et al. 2007; cited from earlier work
Wnt/β-catenin pathway [2] = assay: Wnt/β-catenin-responsive (TCF/LEF) luciferase reporter assay in melanoma cells; type: cell-based, human
Procedure: (§1) Wnt3a conditioned media was collected from sub-confluent melanoma cell lines, and this media was tested for its ability to activate Wnt/β-catenin signaling in UACC 1273 melanoma cells that were stably transduced with a Wnt/β-catenin-responsive firefly luciferase reporter and a constitutive Renilla luciferase gene used for normalization (Cignal TCF/LEF transcriptional reporter construct; SABiosciences, Frederick, Md.). Conditioned media was spun down to clear cell debris and then incubated with reporter cells overnight. Activation of the Wnt/β-catenin reporter was measured using a DLR assay kit (Promega; Madison, Wis.).
(§2) Flunarizine and QS11 were solubilized in dimethyl-sulfoxide (DMSO) vehicle, which was used as a control (vol/vol) for the described experiments. Drug incubations were 24-48 hours in duration.
A TCF/LEF transcriptional reporter gene cell line used to monitor the activation of the Wnt signal transduction pathway was utilized in a high throughput screen of a library of chemical compounds to identify compounds that synergize with lithium in activating the Wnt/β-catenin pathway.

human melanoma cells = assay: Proliferation of human melanoma cells measured by Renilla luciferase activity; type: cell-based; conditions: flunarizine 1 μM alone, FIG. 5
Procedure: as §1, §2

Structure (SMILES): O=[N+]([O-])c1ccc(NCCNc2ncc(-c3ncc[nH]3)c(-c3ccc(Cl)cc3Cl)n2)nc1 [CHIR-837]
- selectivity for GSK-3 (GSK-3): > 5,000 fold

Structure (SMILES): [Cl-].[Na+] [NaCl, Sodium chloride]
- effect on B16 melanoma cell growth (B16 melanoma cells): no effect on cell growth

Structure (SMILES): OC[C@H](Cc1ccccc1)Nc1nc(Oc2ccc3c(c2)CCC3)nc2c1ncn2Cc1ccc(-c2ccccc2)cc1 [QS11]
- synergy with Wnt-3a in activating the Wnt pathway (Wnt/β-catenin pathway [1]): act synergistically with Wnt-3a to activate the Wnt pathway

Structure (SMILES): Fc1ccc(C(c2ccc(F)cc2)N2CCN(CC=Cc3ccccc3)CC2)cc1 [flunarizine, 1-[bis(4-fluorophenyl)methyl]-4-cinnamyl-piperazine]
- activation of Wnt-responsive reporter together with Wnt-3a conditioned media (Wnt/β-catenin pathway [2]; flunarizine 1 μM, human melanoma cells, FIG. 6): synergizes with Wnt-3a conditioned media to activate a Wnt-responsive reporter
- enhancement of lithium-induced activation of the TCF/LEF reporter gene (Wnt/β-catenin pathway [2]; flunarizine with lithium, FIG. 4): ~100 fold
- proliferation of human melanoma cells (Renilla luciferase activity) (human melanoma cells): inhibited
